Results: PubChem BioAssay (NCI)
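Each compound was tested at five concentrations against cells in 96-well plates for 48 hours. At the GI50, growth is halved. Definition used: TGI = concentration required for complete inhibition of growth.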

Experiments:
Experiment in all cases: inhibition of tumour cell growth, NCI panel, 48 h
[1] = system: SW-620 colon
[2] = system: PC-3 prostate
[3] = system: CAKI-1 renal
[4] = system: HS 578T breast
[5] = system: NCI-H460 lung
[6] = system: T-47D breast
[7] = system: HOP-62 NSCLC
[8] = system: MALME-3M melanoma
[9] = system: K-562 leukemia
[10] = system: COLO 205 colon

With `C(=N\Nc1ncc(-c2cc3cc4c(cc3o2)OCO4)s1)/c1ccco1` the GI50 [1] was 0.681 µM, the TGI [1] was 2.48 µM and the GI50 [2] was 1.79 µM. The TGI [2] was 12.4 µM, the GI50 [3] was 0.854 µM and the TGI [3] was 6.69 µM. The GI50 [4] was 2.74 µM, the TGI [4] was 22.2 µM and the GI50 [5] was 2.59 µM. For the same compound, the TGI [5] was 10.3 µM, the GI50 [6] was 1.27 µM and the TGI [6] was 9.74 µM. It also gave a GI50 [7] of 3.04 µM, a TGI [7] of 12.6 µM and a GI50 [8] of 1.92 µM. For the same compound, the TGI [8] was 6.18 µM, the GI50 [9] was 2.1 µM and the TGI [9] was > 100 µM.

For `O=C1Nc2c(Cl)cc(Cl)cc2/C1=N/N=C/c1ccco1`, the TGI [1] was > 100 µM, the TGI [2] was > 100 µM and the TGI [3] was 72.8 µM. The TGI [4] was > 100 µM, the TGI [10] was 73.3 µM and the TGI [5] was > 100 µM. For the same compound, the TGI [7] was > 100 µM, the TGI [8] was > 100 µM and the TGI [9] was > 100 µM.

For `COc1ccc(C(=O)C2CCC(C(=O)O)C2)cc1` (stereo not drawn), the TGI [1] was > 100 µM, the TGI [3] was > 100 µM and the TGI [10] was > 100 µM. The TGI [5] was > 100 µM, the TGI [7] was > 100 µM and the TGI [8] was > 100 µM. For the same compound, the TGI [9] was > 100 µM.

`CCCCCCCCCCCCSC(=S)c1c(C)[nH]n(-c2ccccc2)c1=O` was tested, and the TGI [1] was > 50 µM, the TGI [3] was > 50 µM and the TGI [10] was > 50 µM. For the same compound, the TGI [7] was 15.6 µM, the TGI [8] was 39.8 µM and the TGI [9] was > 50 µM.

With `CSC(=O)C[C@@]12O[C@@H]([C@@H](C)C3CCC4[C@@H]5C(O)CC6=CC(=O)C=C[C@]6(C)C5CC[C@@]43C)C[C@](C)(O1)C(C)(C)O2` (stereo partly drawn) the TGI [1] was 33.2 µM, the TGI [3] was 34.9 µM and the TGI [5] was 35.8 µM. For the same compound, the TGI [7] was 34.8 µM, the TGI [8] was 43.5 µM and the TGI [9] was 19.9 µM.

With `CCN(CC)CCN(CC)CC.CCN(CC)CCN(CC)CC.[Cu+2].[Cu+2].[O-][Cl+3]([O-])([O-])[O-].[OH3+].[OH3+]` the GI50 [1] was > 100 µM, the TGI [1] was > 100 µM and the GI50 [3] was > 100 µM. For the same compound, the TGI [3] was > 100 µM, the GI50 [10] was > 100 µM and the TGI [10] was > 100 µM. The GI50 [5] was 15.5 µM, the TGI [5] was 37.6 µM and the GI50 [7] was 22.5 µM. For the same compound, the TGI [7] was 40.3 µM, the GI50 [8] was > 100 µM and the TGI [8] was > 100 µM. For the same compound, the GI50 [9] was 53.1 µM and the TGI [9] was > 100 µM.

In the case of `CCOC(=O)C12CCCC1(O)N(NC(=O)OC)C(C)=C2C(=O)OC` (stereo not drawn), the TGI [1] is reported as > 100 µM, the TGI [3] is reported as > 100 µM and the TGI [10] is reported as > 100 µM. The TGI [5] was > 100 µM, the TGI [7] was > 100 µM and the TGI [8] was > 100 µM. The TGI [9] was > 100 µM.

With `CN(C)c1ccc(/C=N/NC(N)=S)nc1` the GI50 [1] was 3.14 µM, the TGI [1] was > 100 µM and the GI50 [2] was 3.76 µM. For the same compound, the TGI [2] was > 100 µM, the GI50 [10] was 4.27 µM and the TGI [10] was > 100 µM. It also gave a GI50 [5] of 2.89 µM, a TGI [5] of 29.3 µM and a GI50 [6] of 4.32 µM. The TGI [6] was > 100 µM, the GI50 [7] was 3.11 µM and the TGI [7] was > 100 µM. The GI50 [8] was 7.91 µM, the TGI [8] was > 100 µM and the GI50 [9] was 4.54 µM. For the same compound, the TGI [9] was > 100 µM.

With `CC(C)(C)C(=O)N1C(C(=O)O)Cc2ccccc2[C@@H]1Cc1ccccc1` (stereo partly drawn) the TGI [1] was > 100 µM, the TGI [3] was > 100 µM and the TGI [10] was > 100 µM. For the same compound, the TGI [5] was > 100 µM, the TGI [7] was > 100 µM and the TGI [8] was > 100 µM. The TGI [9] was > 100 µM.

For `CSC(=NC(=O)c1ccccc1Cl)SCCSC(=NC(=O)c1ccccc1Cl)SC`, the TGI [1] was > 100 µM, the TGI [3] was > 100 µM and the TGI [10] was > 100 µM. For the same compound, the TGI [5] was > 100 µM, the TGI [7] was > 100 µM and the TGI [8] was > 100 µM. The TGI [9] was > 100 µM.

With `Cc1cccc(-c2nnc3s/c(=C\c4ccc(N(C)C)cc4)c(=O)n23)c1` the TGI [1] was > 100 µM, the TGI [3] was > 100 µM and the TGI [10] was > 100 µM. The TGI [5] was > 100 µM, the TGI [7] was > 100 µM and the TGI [8] was > 100 µM. The TGI [9] was > 100 µM.

`O=S(=O)(N=C1C(Cl)=C(Cl)C(=NS(=O)(=O)c2ccccc2)C(Cl)=C1Cl)c1ccccc1` showed a GI50 [1] of 13.4 µM, a TGI [1] of 28 µM and a GI50 [2] of 24.3 µM. For the same compound, the TGI [2] was > 100 µM, the GI50 [10] was 23.9 µM and the TGI [10] was 88.8 µM. It also gave a GI50 [5] of 17.4 µM, a TGI [5] of 36.7 µM and a GI50 [6] of 23.8 µM. For the same compound, the TGI [6] was > 100 µM, the GI50 [7] was 27.5 µM and the TGI [7] was 80.3 µM. For the same compound, the GI50 [8] was 18.5 µM, the TGI [8] was 56.4 µM and the GI50 [9] was 21.4 µM. For the same compound, the TGI [9] was > 100 µM.

With `CSc1cc([C@@H]2C[C@H]2c2ccc(Cl)cc2)on1` the GI50 [1] was 20.7 µM, the TGI [1] was 59.8 µM and the GI50 [2] was 16 µM. The TGI [2] was 33.6 µM, the GI50 [3] was 12.5 µM and the TGI [3] was 35.7 µM. For the same compound, the GI50 [10] was 23.9 µM, the TGI [10] was > 100 µM and the GI50 [5] was 19 µM. The TGI [5] was 43 µM, the GI50 [6] was 22.2 µM and the TGI [6] was > 100 µM. The GI50 [7] was 13.8 µM, the TGI [7] was 41.8 µM and the GI50 [9] was 35.1 µM. For the same compound, the TGI [9] was > 100 µM.

For `Cc1cc(OCc2nnc3n2S(=O)(=O)c2ccccc2N3C)ccc1Cl`, the TGI [1] was > 100 µM, the TGI [2] was > 100 µM and the TGI [3] was > 100 µM. For the same compound, the TGI [4] was > 100 µM, the TGI [10] was > 100 µM and the TGI [5] was > 100 µM. The TGI [6] was > 100 µM, the TGI [7] was 29.7 µM and the TGI [9] was > 100 µM.

With `CC1SC(c2ccccc2Cl)N(NC(=O)C(O)c2ccccc2)C1=O` (stereo not drawn) the GI50 [1] was > 100 µM, the TGI [1] was > 100 µM and the GI50 [2] was 45.6 µM. The TGI [2] was > 100 µM, the GI50 [3] was 44.6 µM and the TGI [3] was > 100 µM. The GI50 [4] was 85.3 µM, the TGI [4] was > 100 µM and the GI50 [5] was 66.9 µM. The TGI [5] was > 100 µM, the GI50 [7] was > 100 µM and the TGI [7] was > 100 µM. The GI50 [9] was 58.5 µM and the TGI [9] was > 100 µM.

`c1ccc(SC(Sc2ccccc2)=C2CCC2)cc1` was tested, and the TGI [1] was > 100 µM, the TGI [3] was > 100 µM and the TGI [10] was > 100 µM. The TGI [5] was > 100 µM, the TGI [7] was > 100 µM and the TGI [9] was > 100 µM.

With `O=[N+]([O-])c1nccn1CC(O)c1ccccc1` (stereo not drawn) the TGI [1] was > 100 µM, the TGI [3] was > 100 µM and the TGI [10] was > 100 µM. For the same compound, the TGI [5] was > 100 µM, the TGI [7] was > 100 µM and the TGI [8] was > 100 µM. For the same compound, the TGI [9] was > 100 µM.

For `CCOC(=O)C1(C(=O)OCC)C(C(C)(C)C)=C(C)c2ccccc21`, the TGI [1] was 28.8 µM, the TGI [10] was 26.8 µM and the TGI [5] was 26.3 µM. For the same compound, the TGI [7] was 36.3 µM, the TGI [8] was 28.9 µM and the TGI [9] was 53.5 µM.

For `Cc1ccc(NCC2(/N=C/c3ccccc3)OC(CO)C(O)C2O)cc1` (stereo not drawn), the TGI [1] was > 100 µM, the TGI [3] was > 100 µM and the TGI [10] was > 100 µM. The TGI [5] was > 100 µM, the TGI [7] was > 100 µM and the TGI [8] was > 100 µM. For the same compound, the TGI [9] was > 100 µM.

For `C=CCC1(C(=O)OC)CCC/C(=N\O)C1` (stereo not drawn), the TGI [1] was > 10 µM, the TGI [2] was > 10 µM and the TGI [3] was > 10 µM. For the same compound, the TGI [4] was > 10 µM, the TGI [10] was > 10 µM and the TGI [6] was > 10 µM. The TGI [7] was > 10 µM, the TGI [8] was > 10 µM and the TGI [9] was > 10 µM.

`CN(C)c1ccc(/C=c2\sc3nnc(-c4ccco4)n3c2=O)cc1` was tested, and the TGI [1] was > 100 µM, the TGI [3] was > 100 µM and the TGI [10] was > 100 µM. For the same compound, the TGI [5] was > 100 µM, the TGI [7] was > 100 µM and the TGI [8] was > 100 µM. The TGI [9] was > 100 µM.

For `O=C(C[n+]1ccccc1)N/N=C(/CCC(=O)N(Cc1ccccc1)Cc1ccccc1)CC(=O)c1ccccc1`, the TGI [1] was > 100 µM, the TGI [3] was > 100 µM and the TGI [10] was > 100 µM. The TGI [5] was > 100 µM, the TGI [7] was > 100 µM and the TGI [8] was > 100 µM. The TGI [9] was > 100 µM.
